The procedure of series [1]:
(§1) The water-solubility and lipophilicity of the allopurinol drugs
(§2) The apparent partition coefficients (P) for some allopurinol derivatives and allopurinol were measured using the widely used 1-octanol-water system. Similarly, the solubility of the derivatives in water or aqueous buffer solutions was determined.

A short description of series [2]: In-vitro cleavage of allopurinol derivatives to allopurinol in 80% human plasma (pH 7.4) at 37° C. Type of series: in vitro ADME. The note with it: 80% plasma, pH 7.4, 37° C, read-out: Half-time (t0.5) of the conversion to allopurinol, 80% human plasma (converted). The procedure: (§3) In-vitro cleavage of allopurinol derivatives
(§4) Solutions of various derivatives of allopurinol in aqueous buffer solutions or 80% human plasma solutions (pH 7.4) were kept at 37° C. The initial concentration of the derivatives was in the range 0.01-0.1 mg/ml. At various times an aliquot of the solutions was withdrawn and analyzed by HPLC for remaining derivative as well as for allopurinol. For the plasma solutions the aliquot withdrawn was deproteinized with ethanol or trichloroacetic acid and after centrifugation, the clear supernatant was injected on HPLC.
(§5) An HPLC method was used for the determination of allopurinol and its derivatives. In this method a reversed-phase LiChrosorb RP-8 column (250×4 mm) was eluated at ambient temperature with mixtures of methanol and 0.01M acetate buffer pH 4.5 or methanol and 0.03M phosphate buffer pH 7.0. The composition of the eluant was adjusted for each compound in order to provide an appropriate retention time. The flow rate was 1.2 ml/min and the column effluent was monitored spectrophotometrically at 252 nm or 274 nm. Quantitation of the compounds was done by measurement of peak heights.
(§6) The half-times of allopurinol formation from various derivatives at physiological conditions of pH and temperature are given in Table 2. It can be seen that in the presence of human plasma the rate of degradation is strongly accelerated, thus showing the susceptibility of the derivatives to undergo conversion into the parent active compound at conditions simiar to those prevailing in vivo.

Series [3] in a line: In-vitro cleavage of allopurinol derivatives to allopurinol in pH 7.4 buffer at 37° C. Format: physicochemical. The note with it: read-out: Half-time (t0.5) of the conversion to allopurinol, pH 7.4 buffer (converted). The procedure: as §3, §4, §5, §6
The nature of the next series: physchem. To be noted: water. As to the method: as §1, §2

≈ marks a conversion by molar mass, not a printed value. Structures can show the parent of a compound that is named as a salt. Where two headings read alike, the source gives them in different places.

For orientation: log P means the decadic logarithm of the partition coefficient of the neutral form, usually between octanol and water. With `O=C(OCn1ncc2c(=O)[nH]cnc21)c1ccccc1` [1-(Benzoyloxymethyl)allopurinol], the “log P” value in series [1] worked out at 1.50. The half-life in series [2] is 4 min; in series [3], 14200 min.
By solubility is commonly meant the dissolved amount per volume that the medium holds. A low value points to little dissolved substance. For `CC(=O)n1ncc2c(O)ncnc21` [1-(Acetyl)allopurinol], the concentration in solution in “physchem” (solubility) came to 0.75 mg/mL (≈ 4210 µM). In series [1], the “log P” value was -0.35. Besides, the half-life in series [2] was 6 min; in series [3] it was 26 min.
With `CCC(=O)n1ncc2c(O)ncnc21` [1-(Propionyl)allopurinol], in the series “physchem”, the concentration in solution (solubility) was 0.3 mg/mL (≈ 1560 µM). The “log P” value in series [1] amounted to 0.30. For the same compound, the half-life in series [2] is 4 min; in series [3] it was 30 min.
As for `CCOC(=O)OCn1ncc2c(O)ncnc21` [1-(Ethoxycarbonyloxymethyl)allopurinol], the “log P” value in series [1] stood at 0.21. Moreover, the half-life in series [2] is 20 min.
For the compound `CC(=O)OCn1cc2c(=O)n(COC(C)=O)cnc2n1` [2,5-bis(Acetoxymethyl)allopurinol], the solubility in the series “physchem” amounted to 2.9 mg/mL (≈ 10300 µM). Also, the half-life was 51 min in series [2] and 900 min in series [3].
Consider `CCCC(=O)OCn1cc2c(=O)[nH]cnc2n1` [2-(Butyryloxymethyl)allopurinol], for which the solubility in “physchem” was found to be 1.5 mg/mL (≈ 6350 µM). In series [1], the “log P” value stood at 0.33. Besides, the results for the half-life in series [2] and in series [3] were 22 min and 3240 min, respectively.
In turn, `CC(N)C(=O)OCn1ncc2c(=O)[nH]cnc21` (racemic) [1-(DL-Alanyloxymethyl)allopurinol (hydrobromide)] displayed a solubility in the series “physchem” of over 500 mg/mL. Besides, the half-life is 11 min in series [2] and 15 min in series [3].
Turning to `CC(C)(C)C(=O)OCn1cc2c(=O)[nH]cnc2n1` [2-(Pivaloyloxymethyl)allopurinol, 2-(pivaloyloxymethyl)allopurinol], the solubility in “physchem” amounted to 1.7 mg/mL (≈ 6790 µM). In series [1], the “log P” value worked out at 0.79.
`NC(C(=O)OCn1ncc2c(=O)[nH]cnc21)c1ccccc1` (racemic) [1-(DL-Phenylglycyloxymethyl)allopurinol, 1-(DL-Phenylglycyloxymethyl)allopurinol (hydrobromide)]: in the series “physchem”, the solubility is over 200 mg/mL. The “log P” value in series [1] (pH 8) was -0.15. For the same compound, the half-life in series [2] is 3 min; in series [3], 20 min.
On to `O=C(CCl)n1ncc2c(=O)[nH]cnc21` [1-(Chloroacetyl)allopurinol], for which the half-life in series [2] and in series [3] was under 1 min each time.
With `NC(Cc1ccccc1)C(=O)OCn1ncc2c(=O)[nH]cnc21` (racemic) [1-(DL-Phenylalanyloxymethyl)allopurinol, 1-(DL-Phenylalanyloxymethyl)allopurinol (hydrobromide)], in “physchem”, the solubility is over 200 mg/mL. Also, the “log P” value in series [1] (pH 8) is 0.40. Also, the results for the half-life in series [2] and in series [3] were 9 min and 40 min, respectively.
`CCCN(CCC)CC(=O)OCn1ncc2c(=O)[nH]cnc21` [1-(N,N-Dipropylglycyloxymethyl)allopurinol (hydrochloride)] yielded a solubility in “physchem” of over 400 mg/mL. For the same compound, in series [1] (pH 8), the “log P” value stood at 1.27. Moreover, the half-life in series [2] is 12 min; in series [3] it was 50 min.
For the compound `CCCC(=O)OCn1cc2c(=O)n(COC(=O)CCC)cnc2n1` [2,5-bis(Butyryloxymethyl)allopurinol], the solubility in “physchem” amounted to 0.094 mg/mL (≈ 279 µM). The “log P” value in series [1] was determined as 1.60. Also, the half-life is 32 min in series [2] and 2100 min in series [3].
Turning to `CN(C)CCCC(=O)OCn1ncc2c(=O)[nH]cnc21` [1-[4-(N,N-Dimethylamino)butyryloxymethyl]allopurinol (hydrochloride)], the half-life is 140 min in series [2] and 145 min in series [3].
Compound `CCCC(=O)OCn1cnc2c(cnn2COC(=O)CCC)c1=O` [1,5-bis(Butyryloxymethyl)allopurinol] displayed a solubility in the series “physchem” of 0.05 mg/mL (≈ 149 µM). Further, the “log P” value in series [1] was 1.82. The half-life in series [2] is 22 min; in series [3], 1500 min.
As for `CC(C)C[C@H](N)C(=O)OCn1ncc2c(=O)[nH]cnc21` [1-(L-Leucyloxymethyl)allopurinol, 1-(L-Leucyloxymethyl)allopurinol (hydrobromide)], the solubility in “physchem” was over 400 mg/mL. In addition, the “log P” value in series [1] (pH 8) came to 0.19. In addition, the half-life in series [2] is 6 min; in series [3], 17 min.
On to `CCCC(=O)OCn1ncc2c(=O)[nH]cnc21` [1-(Butyryloxymethyl)allopurinol], for which the “log P” value in series [1] is on record as 0.60. Moreover, the half-life is 9 min in series [2] and 11600 min in series [3].
For the compound `CN(C)CC(=O)n1ncc2c(=O)[nH]cnc21` [1-(N,N--Dimethylglycyl)allopurinol, 1-(N,N-Dimethylglycyl)allopurinol (hydrochloride)], in the series “physchem”, the solubility was over 200 mg/mL. Besides, the half-life is under 1 min in series [2] and 1.5 min in series [3].
In turn, `CCN(CC)C(=O)CCC(=O)OCn1ncc2c(O)ncnc21` [1-[3-(N,N-Diethylcarbamoyl)propionyloxymethyl]allopurinol] displayed a solubility in “physchem” of 33 mg/mL (≈ 103000 µM). In addition, in series [1], the “log P” value is on record as -0.22. For the same compound, the figures for the half-life in series [2] and in series [3] were 504 min and 4860 min, respectively.
In the series “physchem”, `CC(=O)OCn1ncc2c(O)ncnc21` [1-(Acetoxymethyl)allopurinol, 1-(Acetyloxymethyl)allopurinol] returned a solubility of 0.58 mg/mL (≈ 2790 µM). Besides, the lipophilicity (log P) in series [1] is on record as -0.35. Further, the half-life in series [2] is 31 min; in series [3] it was 5220 min.
Regarding `CCCC(=O)n1ncc2c(O)ncnc21` [1-(Butyryl)allopurinol], in the series “physchem”, the solubility turned out to be 0.11 mg/mL (≈ 533 µM). The “log P” value in series [1] was determined as 0.85. The results for the half-life in series [2] and in series [3] were 2.5 min and 36 min, respectively.
Take `CC(C)(C)C(=O)OCn1cc2c(=O)n(COC(=O)C(C)(C)C)cnc2n1` [2,5-bis(Pivaloyloxymethyl)allopurinol]: the “log P” value in series [1] amounted to 2.34.
For the compound `CCCCNC(=O)n1ncc2c(=O)[nH]cnc21` [1-(N--Butylcarbamoyl)allopurinol, 1-(N-Butylcarbamoyl)allopurinol], the half-life in series [2] is 90 min.
As for `O=C(c1ccccc1)n1ncc2c(=O)[nH]cnc21` [1-(Benzoyl)allopurinol], the “log P” value in series [1] amounted to 1.20. Also, the half-life was 4 min in series [2] and 20 min in series [3].
As to `CC(N)C(=O)OCn1cc2c(=O)n(COC(=O)C(C)N)cnc2n1` (racemic) [2,5-bis(DL-Alanyloxymethyl)allopurinol, 2,5-bis-(DL-Alanyloxymethyl)allopurinol (dihydrobromide)], the half-life in series [2] and in series [3] was under 1 min each time.
On to `CC(C)(C)C(=O)OCn1cnc2c(cnn2COC(=O)C(C)(C)C)c1=O` [1,5-bis(Pivaloyloxymethyl)allopurinol], for which the solubility in the series “physchem” worked out at 0.02 mg/mL (≈ 54.9 µM). In addition, in series [1], the “log P” value stood at 2.50.
In the series “physchem”, `NCC(=O)OCn1ncc2c(=O)[nH]cnc21` [1-(Glycyloxymethyl)allopurinol, 1-(Glycyloxymethyl)allopurinol (hydrochloride)] came in with a solubility of over 500 mg/mL. In addition, the half-life was 9 min in series [2] and 26 min in series [3].
The compound `CC(C)(C)C(=O)OCn1ncc2c(O)ncnc21` [1-(Pivaloyloxymethyl)allopurinol] yielded a solubility in “physchem” of 0.52 mg/mL (≈ 2080 µM). Moreover, the “log P” value in series [1] is listed as 1.07.

Values taken from patent US4694006A, “Acyl- or acyloxymethyl-allopurinol prodrugs” (priority 1983, dated 1987).
